Results as given in ChEMBL document CHEMBL1201862, “PubChem BioAssay data set” (2004).
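Cultured in 96-well plates, cells were exposed to test compound for 48 hours across five concentrations. GI50 is the concentration that inhibits growth by half.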 Activity calls are given as the source filed them. Rule as the data show it: active = GI50 up to about 1.1 µM and inactive = higher.

How the values were obtained:
Experiment in all cases: NCI anticancer screen, dose series, 48 h
786-0 = system: 786-0
CAKI-1 = system: CAKI-1
DU-145 = system: DU-145
EKVX = system: EKVX
HOP-62 = system: HOP-62
LOX IMVI = system: LOX IMVI
MCF7 = system: MCF7
MOLT-4 = system: MOLT-4
NCI-H23 = system: NCI-H23
NCI-H522 = system: NCI-H522
OVCAR-3 = system: OVCAR-3
OVCAR-5 = system: OVCAR-5
PC-3 = system: PC-3
SK-MEL-28 = system: SK-MEL-28
SNB-19 = system: SNB-19
T47D = system: T47D
U-251 = system: U-251
UO-31 = system: UO-31
Malme-3M = system: Malme-3M
HOP-92 = system: HOP-92

Measured: GI50

O=C(Oc1ccc(C(c2c(O)c3ccccc3oc2=O)c2c(O)c3ccccc3oc2=O)cc1)c1ccc(C(=O)c2ccccc2)cc1
inactive: 786-0 33 µM | CAKI-1 28 µM | DU-145 29.1 µM | EKVX 16.7 µM | HOP-62 24.1 µM | LOX IMVI 21.9 µM | MCF7 29.4 µM | MOLT-4 20.7 µM | NCI-H23 18.5 µM | NCI-H522 15.4 µM | OVCAR-3 18.3 µM | OVCAR-5 19.4 µM | PC-3 18.7 µM | SK-MEL-28 13.6 µM | SNB-19 17.4 µM | T47D 34.5 µM | U-251 23.6 µM | UO-31 17.8 µM

S=c1[nH]nc(Cn2c3ccc(Br)cc3c3nc4ccccc4nc32)n1C1CCCCC1
inactive: 786-0 20.7 µM | CAKI-1 34.2 µM | DU-145 27.8 µM | EKVX 35 µM | HOP-62 18.6 µM | MCF7 16.7 µM | Malme-3M 29.7 µM | NCI-H23 13.8 µM | NCI-H522 21.3 µM | OVCAR-3 18.5 µM | OVCAR-5 32.5 µM | PC-3 20.4 µM | SK-MEL-28 9.44 µM | SNB-19 43.5 µM | T47D 19.4 µM | U-251 18.5 µM | UO-31 18.2 µM

N#Cc1c(N)[nH]c(=S)c(C#N)c1-c1cccc(Cl)c1
inactive: 786-0 18.6 µM | CAKI-1 65.8 µM | DU-145 33.3 µM | EKVX 25.6 µM | HOP-62 42.4 µM | HOP-92 24.4 µM | LOX IMVI 39.9 µM | MCF7 32.3 µM | MOLT-4 18.4 µM | Malme-3M 56.1 µM | NCI-H23 71.9 µM | NCI-H522 18.9 µM | OVCAR-3 26.9 µM | OVCAR-5 > 100 µM | PC-3 21.8 µM | SK-MEL-28 39.6 µM | SNB-19 56.2 µM | U-251 25.9 µM | UO-31 32.8 µM

Cc1cc(S(=O)(=O)Nc2nc(N)n[nH]2)c(S)cc1Cl
inactive: 786-0 > 10 µM | CAKI-1 > 10 µM | DU-145 > 10 µM | EKVX > 10 µM | HOP-62 > 10 µM | LOX IMVI > 10 µM | MCF7 > 10 µM | MOLT-4 > 10 µM | Malme-3M > 10 µM | NCI-H23 > 10 µM | NCI-H522 > 10 µM | OVCAR-3 > 10 µM | OVCAR-5 > 10 µM | PC-3 > 10 µM | SK-MEL-28 > 10 µM | SNB-19 > 10 µM | T47D > 10 µM | U-251 > 10 µM

O=C(NN=C(c1ccccc1)c1ccccc1)/C(O)=C/C(=O)c1ccc(Cl)cc1
inactive: 786-0 37.3 µM | CAKI-1 > 100 µM | DU-145 73.1 µM | EKVX 30.7 µM | HOP-62 45.2 µM | MCF7 28 µM | MOLT-4 35 µM | Malme-3M 20.7 µM | NCI-H23 23.2 µM | NCI-H522 13.5 µM | OVCAR-3 30.8 µM | OVCAR-5 > 100 µM | PC-3 27.1 µM | SNB-19 38.3 µM | T47D 30.2 µM | U-251 39.1 µM | UO-31 29.8 µM

CCCCCCCCCCCCCCCC(=O)OCC1OC(OC)C(NC(=O)N(CCCl)N=O)C(O)C1O (stereo not drawn)
inactive: 786-0 2.01 µM | CAKI-1 14.5 µM | DU-145 19.5 µM | EKVX 31.2 µM | HOP-62 8.04 µM | HOP-92 17.4 µM | LOX IMVI 2.36 µM | MCF7 45.4 µM | MOLT-4 6.32 µM | Malme-3M 20.9 µM | NCI-H23 11.5 µM | NCI-H522 15.9 µM | OVCAR-3 19.6 µM | OVCAR-5 35 µM | PC-3 15.7 µM | SK-MEL-28 28.5 µM | SNB-19 14.8 µM | U-251 8.38 µM | UO-31 24 µM

CCN(CC)C(=O)N[C@@H](CC(C)C)C(=O)NC
inactive: 786-0 > 100 µM | CAKI-1 > 100 µM | DU-145 > 100 µM | EKVX > 100 µM | HOP-62 > 100 µM | LOX IMVI > 100 µM | MCF7 49.4 µM | MOLT-4 > 100 µM | Malme-3M > 100 µM | NCI-H23 > 100 µM | NCI-H522 > 100 µM | OVCAR-3 > 100 µM | OVCAR-5 > 100 µM | PC-3 73.6 µM | SK-MEL-28 > 100 µM | SNB-19 > 100 µM | T47D > 100 µM | U-251 > 100 µM | UO-31 > 100 µM

NS(=O)(=O)c1nnc(NC(=S)NC(=O)Nc2ccc(Cl)c(Cl)c2)s1
inactive: 786-0 28.3 µM | CAKI-1 23.4 µM | DU-145 20.8 µM | EKVX 26.3 µM | HOP-62 22.8 µM | HOP-92 13.5 µM | LOX IMVI 17.1 µM | MCF7 38 µM | MOLT-4 29 µM | Malme-3M 22.6 µM | NCI-H23 18.1 µM | NCI-H522 14.8 µM | OVCAR-3 20.8 µM | OVCAR-5 25.1 µM | PC-3 27.3 µM | SK-MEL-28 37.1 µM | SNB-19 28.3 µM | U-251 36.3 µM | UO-31 20.6 µM

CN1C(=O)C(O)CC1c1ccccc1F (stereo not drawn)
inactive: 786-0 > 100 µM | CAKI-1 > 100 µM | DU-145 > 100 µM | EKVX > 100 µM | HOP-62 > 100 µM | HOP-92 > 100 µM | LOX IMVI > 100 µM | MCF7 > 100 µM | MOLT-4 > 100 µM | Malme-3M > 100 µM | NCI-H23 > 100 µM | NCI-H522 > 100 µM | OVCAR-3 > 100 µM | OVCAR-5 > 100 µM | PC-3 > 100 µM | SK-MEL-28 > 100 µM | SNB-19 > 100 µM | U-251 > 100 µM | UO-31 > 100 µM

CC(C)(C)C(=O)C(C(c1ccccc1)N1CCOCC1)N1CCOCC1 (stereo not drawn)
inactive: 786-0 > 100 µM | CAKI-1 > 100 µM | DU-145 > 100 µM | EKVX > 100 µM | HOP-62 > 100 µM | HOP-92 > 100 µM | LOX IMVI > 100 µM | MOLT-4 > 100 µM | Malme-3M > 100 µM | NCI-H23 > 100 µM | NCI-H522 > 100 µM | OVCAR-3 > 100 µM | OVCAR-5 > 100 µM | PC-3 > 100 µM | SK-MEL-28 > 100 µM | SNB-19 > 100 µM | T47D > 100 µM | U-251 > 100 µM | UO-31 > 100 µM

CC1(C)OC2C(O)CN3CCS[C@H]3C2O1 (stereo partly drawn)
inactive: 786-0 > 100 µM | CAKI-1 > 100 µM | DU-145 > 100 µM | EKVX > 100 µM | HOP-62 > 100 µM | HOP-92 > 100 µM | LOX IMVI > 100 µM | MOLT-4 > 100 µM | Malme-3M > 100 µM | NCI-H23 > 100 µM | NCI-H522 > 100 µM | OVCAR-3 > 100 µM | OVCAR-5 > 100 µM | PC-3 > 100 µM | SK-MEL-28 > 100 µM | SNB-19 > 100 µM | T47D > 100 µM | U-251 > 100 µM | UO-31 > 100 µM
